Assay results reported in PMC10779086, “3-O-Methyltolcapone and Its Lipophilic Analogues Are Potent Inhibitors of Transthyretin Amyloidogenesis with High Permeability and Low Toxicity” (International Journal of Molecular Sciences, 2023).
Several values for one entry are separate records, joined by “and”; a condition that tells them apart may be missing. Identical values can stand only once.

How the values were obtained:
[1] = Caco-2 intestinal permeability; format: in vitro ADME, human; conditions: human; for efflux ratio at 60 min, 10 μM: Caco-2, pH 7.4, without inhibitor, read-out: Efflux Ratio (Papp BA/Papp AB); for Papp A→B at 60 min, 10 μM / Papp B→A at 60 min, 10 μM: Caco-2, pH 7.4
Description: Caco-2 cells (cod. HTB-37) were bought from ATCC (American Type Culture Collection, Rockville, MD, USA). Caco-2 cells were cultured for 21 days on a 24 trans-well plate to reach the right confluence and differentiate until the formation of the intestinal epithelium mimetic monolayer. The test substance permeability was measured in both directions (apical to basolateral [A→B] and basolateral to apical [B→A]) across the cell monolayer. The assay was carried out in HBSS transport medium at pH 7.4. Test substance at single concentration (10 μM) was tested in duplicate at one time point (60 min). Monolayer integrity of Caco-2 cells was evaluated by TEER measurements during the experiment and by Lucifer Yellow test after the incubation with the test compound. The concentrations of the test substance and/or reference controls were measured by LC-MS/MS.
When the inhibitor leads the efflux ratio to a significant reduction (>50%) or to unity, the test compound is classified as a probable substrate of that efflux transporter. As control, the modulation of the efflux ratio of a reference known substrate (Digoxin) was evaluated with or without the respectively inhibitors in every experiment. […] In parallel, mass balance (%) of recovered test substance was also determined. […] Outside these ranges the permeability data is not reliable.

TTR = TTR (Homo sapiens, UniProt P02766); test: Isothermal titration calorimetry (ITC), one-binding-site model; design: made in house; host or cells: E. coli BL21; ∆S: unit not given here; conditions: single-binding-site model, 25 °C; for Kd: pH 7.4, 5% DMSO
Description: At an absorbance value of 600 nm around 0.3, the temperature was shifted to 30 °C.
Data were fitted using the “one-binding-site model” of the Malvern version of ORIGIN v.7. The heat of binding (ΔH), the stoichiometry (n), entropy (ΔS) and the dissociation constant (Kd) were then calculated from plots of the heat evolved per mole of ligand injected versus the molar ratio of ligand to protein using the software provided by the vendor (Table 3). Sample preparation is detailed below. […] A 10 µM protein stock in 2× buffer was then prepared and diluted 1:1 with a 10% DMSO solution, to obtain a 5 µM TTR solution in 1× buffer A and 5% DMSO. Different protein concentrations (3–5 µM) assayed in the replicates were prepared accordingly, starting from a 2× protein solution in 2× buffer A. Each ligand was dissolved in 100% DMSO and a 2 mM stock solution in 100% DMSO was prepared. A 200 µM compound solution was obtained in 10% DMSO and diluted 1:1 with 2× buffer A, to obtain a 100 µM ligand solution to be used for the ITC assays (in 1× buffer A and 5% DMSO).

[2] = system: SH-SY5Y neuroblastoma human cell line; test: Cytotoxicity in SH-SY5Y cells (ATP viability assay); format: cell-based; conditions: 48 h
Description: The neuroblastoma cell line SHSY-5Y (ATCC CRL2266) was cultured in EMEM ATCC medium supplemented with 10% FBS (Euroclone CAT No. ECS0180D), 100 units/mL penicillin, and 100 ug/mL streptomycin sulphate (Euroclone CAT No. ECB3001). Cells were grown at 37 °C in an atmosphere of 5% CO2 and plated at 10,000 cells/well in a 96-well plate (Corning Cat. N. 3610). The compounds were dissolved at a concentration of 10 mM in DMSO. Cells were stimulated for 48 h at 37 °C with serial dilutions of the compounds at the following concentrations: 0.1, 1, 10, 50, 100, and 200 μM and dispensed with an HP Dispenser (Tecan), as triplicates for each concentration. DMSO normalisation at 1.5% was performed in each well.
(§1) Cell viability was evaluated by measuring ATP levels using CellTiter Glo (Promega Cat.n. G7570) according to manufacturer’s instructions.

[3] = Kinetic solubility in PBS; format: physicochemical; conditions: Phosphate Buffered Saline (PBS), aqueous buffer, kinetic from dmso stock, PBS pH 7.4, 1% DMSO
Description: The assay combines solubility and a non-cell-based Blood Brain Barrier permeability assay (Parallel Artificial Membrane Permeation Assay; PAMPA-BBB) into a single workflow in which a portion of the filtrate from the Solubility filter plate is added to the donor compartment of the MultiScreen filter plate for the PAMPA-BBB analysis. […] Solutions were filtered into a 96-well collection plate using vacuum filtration and then analysed by UV/Vis spectroscopy. The relative solubility was then calculated using the sum of the recorded values as compared to a standard calibration curve. […] PAMPA-BBB determination was carried out in a 96-well MultiScreen Permeability plate and the ability of a compound to diffuse from a Donor to an Acceptor compartment separated by a Porcine Brain Lipid Extract (PBLE) dissolved in dodecane (20 mg/mL) layer on a PVDF membrane support was measured. The assay was performed in duplicate in PBS at pH 7.4 and the analysis is carried out by UV/Vis spectroscopy.

[4] = system: HepG2 human liver cancer cell line; test: Cytotoxicity in HepG2 cells (ATP viability assay); format: cell-based; conditions: 48 h
Description: Compounds were dissolved at the concentration of 50 mM in DMSO.
DMSO normalisation at 1.0% was performed in each well.
as §1

[5] = Chromatographic Hydrophobicity Index (CHI); format: physicochemical
From the text: The assay is a chromatographic fast gradient reversed-phase method which allows to characterize the lipophilicity of compounds in high throughput screening regime at three different pH values (2.0; 7.4; 10.5). The so defined CHI is obtained from the gradient (buffer/Acetonitrile) retention time after calibrating the chromatographic system with a test mixture of ten known standard compounds. For most compounds, CHI is between 0 and 100 and it approximates the percentage (by volume) of acetonitrile required to achieve an equal distribution of compound between the mobile and the lipophilic stationary phase of a C18 chromatographic column. Compounds that are not retained on the column are assigned to a CHI value < 0, which means very low lipophilicity. For highly lipophilic compounds, which are strongly retained by the column, a CHI value of >100 is assigned. For any value in between, the actual CHI value is calculated based on the calibration line of the reference compounds [49].

Row | recovery at 60 min, 10 µM ([1]; Caco-2, pH 7.4, A→B) | recovery at 60 min, 10 µM ([1]; Caco-2, pH 7.4, B→A) | efflux ratio at 60 min, 10 μM [1] | Papp A→B at 60 min, 10 μM [1] | Papp B→A at 60 min, 10 μM [1] | n (stoichiometry of binding, ligand:TTR tetramer) (TTR) | ∆S (TTR) | Kd (TTR) | solubility [3] | CHI (pH 2.0) [5] | CHI (pH 7.4) [5] | CHI (pH 10.5) [5] | SMILES | ∆H (TTR) | EC50 [2] | EC50 [4]
1 | 66 ± 4% | 83 ± 8% | 1.5 | 16 ± 2.9 ×10⁻⁶ cm/s | 24.3 ± 3 ×10⁻⁶ cm/s | 1.9 ± 0.2 | 4.6 ± 0.5 | 0.033 ± 0.009 µM | > 500 µM | 89.2 | 50.2 | 46.0 | COc1cc(C(=O)c2ccc(C)cc2)cc([N+](=O)[O-])c1O [3-OMT, 3-O-methyltolcapone] | -8.9 kcal/mol and -8.9 ± 0.3 kcal/mol | 226.3 ± 1.3 µM | 262 ± 20.7 µM
2 | 64 ± 4% | 77 ± 2% | 1 | 24 ± 2.1 ×10⁻⁶ cm/s | 23.1 ± 2.3 ×10⁻⁶ cm/s | 1.8 ± 0.1 | −2.9 ± 0.9 | 0.071 ± 0.026 µM | > 500 µM | 97.8 | 55.5 | 51.7 | COc1cc(C(=O)c2cc(C)cc(C)c2)cc([N+](=O)[O-])c1O [Compound 1, (4-Hydroxy-3-methoxy-5-nitrophenyl)-1-(3,5-dimethylphenyl)methanone] | -11.5 kcal/mol and -11.5 ± 1.3 kcal/mol | 172 ± 5 µM | 410 ± 33 µM
3 | 69 ± 8% | 80 ± 9% | 1 | 25 ± 0.3 ×10⁻⁶ cm/s | 26.8 ± 2.5 ×10⁻⁶ cm/s | 2.1 ± 0.3 | −0.4 ± 0.1 | 0.025 ± 0.005 µM | > 500 µM | 96.1 | 53.8 | 50.2 | COc1cc(C(=O)c2ccc(C)cc2C)cc([N+](=O)[O-])c1O [Compound 2, (4-Hydroxy-3-methoxy-5-nitrophenyl)-1-(2,4-dimethylphenyl)methanone] | -10.5 kcal/mol and -10.5 ± 0.2 kcal/mol | 174 ± 3.7 µM | 216 ± 2.2 µM
